Measured values as given in the NIST ThermoML archive (doi:10.1021/je800756r).
Several values for one entry are separate records, joined by “and”; a condition that tells them apart may be missing. Identical values can stand only once. ± gives the expanded uncertainty stated by the source.

Assay: xn = mol fraction of the nth substance listed
Conditions: Capillary rise

FCF [difluoromethane] + CCC
Conditions	surface tension liquid-gas
280 K, x2 = 0.01	9.7 ± 0.4 mN/m
280 K, x2 = 0.013	9.4 ± 0.4 mN/m
280 K, x2 = 0.037	9.5 ± 0.4 mN/m
280 K, x2 = 0.07	9 ± 0.4 mN/m
280 K, x2 = 0.087	8.7 ± 0.4 mN/m
280 K, x2 = 0.092	8.4 ± 0.4 mN/m
280 K, x2 = 0.115	8.5 ± 0.4 mN/m
280 K, x2 = 0.12	8.4 ± 0.4 mN/m
280 K, x2 = 0.121	8 ± 0.4 mN/m
280 K, x2 = 0.123	8.2 ± 0.4 mN/m
280 K, x2 = 0.124	8.2 ± 0.4 mN/m
280 K, x2 = 0.131	7.9 ± 0.4 mN/m
280 K, x2 = 0.141	8 ± 0.4 mN/m
280 K, x2 = 0.515	6.4 ± 0.4 mN/m
280 K, x2 = 0.588	6.5 ± 0.4 mN/m
280 K, x2 = 0.605	6.5 ± 0.4 mN/m
280 K, x2 = 0.648	6.8 ± 0.4 mN/m and 6.7 ± 0.4 mN/m
280 K, x2 = 0.662	6.8 ± 0.4 mN/m
280 K, x2 = 0.682	6.8 ± 0.4 mN/m
280 K, x2 = 0.697	7 ± 0.4 mN/m
280 K, x2 = 0.706	7.1 ± 0.4 mN/m
280 K, x2 = 0.729	7.1 ± 0.4 mN/m
280 K, x2 = 0.755	7.4 ± 0.4 mN/m
280 K, x2 = 0.775	7.4 ± 0.4 mN/m
280 K, x2 = 0.813	7.8 ± 0.4 mN/m
280 K, x2 = 0.826	7.8 ± 0.4 mN/m
280 K, x2 = 0.898	8.4 ± 0.4 mN/m
280 K, x2 = 0.931	8.8 ± 0.4 mN/m
280 K, x2 = 0.942	8.9 ± 0.4 mN/m
280 K, x2 = 0.968	9.1 ± 0.4 mN/m
290 K, x2 = 0.002	8.1 ± 0.4 mN/m
290 K, x2 = 0.003	8 ± 0.4 mN/m
290 K, x2 = 0.004	8 ± 0.4 mN/m
290 K, x2 = 0.005	7.9 ± 0.4 mN/m
290 K, x2 = 0.039	7.5 ± 0.4 mN/m
290 K, x2 = 0.065	7.2 ± 0.4 mN/m
290 K, x2 = 0.078	7 ± 0.4 mN/m
290 K, x2 = 0.081	7.2 ± 0.4 mN/m
290 K, x2 = 0.09	7.1 ± 0.4 mN/m
290 K, x2 = 0.095	6.9 ± 0.4 mN/m
290 K, x2 = 0.097	6.9 ± 0.4 mN/m
290 K, x2 = 0.114	6.6 ± 0.4 mN/m
290 K, x2 = 0.143	6.5 ± 0.4 mN/m
290 K, x2 = 0.156	6.3 ± 0.4 mN/m
290 K, x2 = 0.175	5.9 ± 0.4 mN/m
290 K, x2 = 0.185	5.9 ± 0.4 mN/m
290 K, x2 = 0.198	6 ± 0.4 mN/m
290 K, x2 = 0.209	5.7 ± 0.4 mN/m
290 K, x2 = 0.485	5 ± 0.4 mN/m
290 K, x2 = 0.506	4.9 ± 0.4 mN/m
290 K, x2 = 0.525	5 ± 0.4 mN/m
290 K, x2 = 0.539	5.1 ± 0.4 mN/m
290 K, x2 = 0.58	5.1 ± 0.4 mN/m
290 K, x2 = 0.596	5.1 ± 0.4 mN/m
290 K, x2 = 0.604	5.2 ± 0.4 mN/m
290 K, x2 = 0.648	5.6 ± 0.4 mN/m
290 K, x2 = 0.691	5.9 ± 0.4 mN/m
290 K, x2 = 0.768	6.1 ± 0.4 mN/m
290 K, x2 = 0.805	6.4 ± 0.4 mN/m
290 K, x2 = 0.896	7 ± 0.4 mN/m
290 K, x2 = 0.917	7.3 ± 0.4 mN/m
290 K, x2 = 0.925	7.4 ± 0.4 mN/m
290 K, x2 = 0.975	7.7 ± 0.4 mN/m
290 K, x2 = 0.986	7.9 ± 0.4 mN/m
290 K, x2 = 0.999	8.1 ± 0.4 mN/m
300 K, x2 = 0.02	6 ± 0.4 mN/m
300 K, x2 = 0.045	5.7 ± 0.4 mN/m
300 K, x2 = 0.087	5.4 ± 0.4 mN/m
300 K, x2 = 0.11	5.2 ± 0.4 mN/m
300 K, x2 = 0.12	5 ± 0.4 mN/m
300 K, x2 = 0.124	5 ± 0.4 mN/m
300 K, x2 = 0.149	4.6 ± 0.4 mN/m
300 K, x2 = 0.154	4.7 ± 0.4 mN/m
300 K, x2 = 0.22	4.1 ± 0.4 mN/m
300 K, x2 = 0.573	4 ± 0.4 mN/m
300 K, x2 = 0.682	4.5 ± 0.4 mN/m
300 K, x2 = 0.692	4.7 ± 0.4 mN/m
300 K, x2 = 0.703	4.7 ± 0.4 mN/m
300 K, x2 = 0.744	4.9 ± 0.4 mN/m
300 K, x2 = 0.748	5.1 ± 0.4 mN/m
300 K, x2 = 0.761	5 ± 0.4 mN/m
300 K, x2 = 0.771	5.1 ± 0.4 mN/m
300 K, x2 = 0.782	5.1 ± 0.4 mN/m
300 K, x2 = 0.79	5.2 ± 0.4 mN/m
300 K, x2 = 0.824	5.5 ± 0.4 mN/m
300 K, x2 = 0.834	5.4 ± 0.4 mN/m
300 K, x2 = 0.838	5.5 ± 0.4 mN/m
300 K, x2 = 0.852	5.6 ± 0.4 mN/m
300 K, x2 = 0.865	5.8 ± 0.4 mN/m
300 K, x2 = 0.881	5.8 ± 0.4 mN/m
300 K, x2 = 0.893	6 ± 0.4 mN/m
300 K, x2 = 0.897	5.9 ± 0.4 mN/m
300 K, x2 = 0.911	6 ± 0.4 mN/m
300 K, x2 = 0.918	6.2 ± 0.4 mN/m
300 K, x2 = 0.938	6.4 ± 0.4 mN/m
300 K, x2 = 0.982	6.8 ± 0.4 mN/m
300 K, x2 = 0.994	6.7 ± 0.4 mN/m
300 K, x2 = 0.999	6.9 ± 0.4 mN/m
